Reference: the supplement of paper PMC10627819

Columns and labels:
Assay in all cases: Bliss interaction score (quartile over a dose matrix) (fitness difference); higher = more antagonism (negative = synergy)
B. subtilis 168 = system: B. subtilis 168
Outline: (§1)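 The Bliss score is observed minus expected fitness under the product model, reported as quartiles over technical, biological and donor/recipient replicates. Fitness is the OD595 at entry into stationary phase divided by the plate's robust no-drug mean and capped at 1. Single-drug fitness was inferred from combination data.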

S. aureus DSM 20231 = system: S. aureus DSM 20231
Outline: as §1

S. aureus Newman = system: S. aureus Newman
Outline: as §1

S. pneumoniae D39V = system: S. pneumoniae D39V
Outline: as §1
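Also: first quartile when negative (synergy) and third quartile when positive (antagonism).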

Structure (SMILES)	Bliss interaction score (B. subtilis 168)	Bliss interaction score (S. aureus DSM 20231)	Bliss interaction score (S. aureus Newman)	Bliss interaction score (S. pneumoniae D39V)
N[C@@H]1CONC1=O [CycloserineD] + COc1cc(Cc2cnc(N)nc2N)cc(OC)c1OC [Trimethoprim]	0.0782	-0.0585	-0.067	0.0932
N[C@@H]1CONC1=O [CycloserineD] + COc1ccc(C[C@H](N)C(=O)N[C@H]2[C@@H](O)[C@H](n3cnc4c(N(C)C)ncnc43)O[C@@H]2CO)cc1 [Puromycin]	0.0439	0.0925	0.051	0.142
N[C@@H]1CONC1=O [CycloserineD] + COc1cccc2c1C(=O)c1c(O)c3c(c(O)c1C2=O)C[C@@](O)(C(=O)CO)C[C@@H]3O[C@H]1C[C@H](N)[C@H](O)[C@H](C)O1 [Doxorubicin]	0.0778	0.0418	-0.0446	0.0698
N[C@@H]1CONC1=O [CycloserineD] + C[C@@H]1O[C@@H]1P(=O)(O)O [Fosfomycin]	-0.046	-0.0611	-0.033	0.0808
N[C@@H]1CONC1=O [CycloserineD] + C[C@@H](O)[C@H]1C(=O)N2C(C(=O)O)=C(SCCNC=N)C[C@H]12 [Imipenem]	0.0545	0.0715	-0.0358	-0.235
N[C@@H]1CONC1=O [CycloserineD] + C[C@H]1COc2c(N3CCN(C)CC3)c(F)cc3c(=O)c(C(=O)O)cn1c23 [Levofloxacin]	0.0199	-0.12	-0.131	0.0882
N[C@@H]1CONC1=O [CycloserineD] + C[C@H]1c2cccc(O)c2C(=O)C2=C(O)[C@]3(O)C(=O)C(C(N)=O)=C(O)[C@@H](N(C)C)[C@@H]3[C@@H](O)[C@@H]21 [Doxycycline]	0.0526	-0.116	-0.0254	0.243
N[C@@H]1CONC1=O [CycloserineD] + C[n+]1ccc(-c2cc[n+](C)cc2)cc1 [Paraquat]	-0.036	0.0783	0.0488	-0.101
N[C@@H]1CONC1=O [CycloserineD] + Cc1cc(NS(=O)(=O)c2ccc(N)cc2)no1 [Sulfamethoxazol]	-0.0418	0.0715	0.0449	-0.188
N[C@@H]1CONC1=O [CycloserineD] + Cc1ncc([N+](=O)[O-])n1CCO [Metronidazole]	-0.0606	0.0317	0.0557	-0.0766
N[C@@H]1CONC1=O [CycloserineD] + Cc1onc(-c2ccccc2)c1C(=O)N[C@@H]1C(=O)N2[C@@H]1SC(C)(C)[C@@H]2C(=O)O [Oxacillin]	0.0509	0.0729	-0.0567	-0.17
N[C@@H]1CONC1=O [CycloserineD] + Clc1ccc(COC(Cn2ccnc2)c2ccc(Cl)cc2Cl)c(Cl)c1 [Miconazole]	0.0883	0.0763	-0.0328	-0.0729
N[C@@H]1CONC1=O [CycloserineD] + Cn1nnc(-c2ccc(-c3ccc(N4C[C@H](CO)OC4=O)cc3F)cn2)n1 [Tedizolid]	0.0364	-0.101	0.0593	0.126
N[C@@H]1CONC1=O [CycloserineD] + O=C1CN(/N=C/c2ccc([N+](=O)[O-])o2)C(=O)N1 [Nitrofurantoin]	0.173	0.0785	-0.0425	0.197
N[C@@H]1CONC1=O [CycloserineD] + O=C(O[C@@H]1Cc2c(O)cc(O)cc2O[C@@H]1c1cc(O)c(O)c(O)c1)c1cc(O)c(O)c(O)c1 [EGCG]	-0.114	-0.107	0.0286	-0.0875
N[C@@H]1CONC1=O [CycloserineD] + Oc1cc(Cl)ccc1Oc1ccc(Cl)cc1Cl [Triclosan]	0.0246	0.0965	0.0356	-0.11
O=C(O[C@@H]1Cc2c(O)cc(O)cc2O[C@@H]1c1cc(O)c(O)c(O)c1)c1cc(O)c(O)c(O)c1 [EGCG] + CC1(C)S[C@@H]2[C@H](NC(=O)Cc3ccccc3)C(=O)N2[C@H]1C(=O)O [PenicillinG]	0.0517	0.059	0.0531	0.108
O=C(O[C@@H]1Cc2c(O)cc(O)cc2O[C@@H]1c1cc(O)c(O)c(O)c1)c1cc(O)c(O)c(O)c1 [EGCG] + CC(=O)O[C@H]1C[C@@]2(C)[C@@H](C[C@@H](O)[C@H]3[C@@]4(C)CC[C@@H](O)[C@@H](C)[C@@H]4CC[C@@]32C)/C1=C(\CCC=C(C)C)C(=O)O [Fusidic acid]	0.0767	-0.019	-0.0283	-0.143
O=C(O[C@@H]1Cc2c(O)cc(O)cc2O[C@@H]1c1cc(O)c(O)c(O)c1)c1cc(O)c(O)c(O)c1 [EGCG] + CC[C@H]1OC(=O)[C@H](C)C(=O)[C@H](C)[C@@H](O[C@@H]2O[C@H](C)C[C@H](N(C)C)[C@H]2O)[C@](C)(OC)C[C@@H](C)C(=O)[C@H](C)[C@H]2N(CCCCn3cnc(-c4cccnc4)c3)C(=O)O[C@]12C [Telithromycin]	0.0403	-0.079	0.0859	0.0892
